Test results as given in US20100004267A1, “LIQUID PREPARATION” (ASUBIO PHARMA CO., LTD., priority 2006, published 2010).
Where two headings read alike, the source gives them in different places.

Legend:
Assay type in all cases: physicochemical
[1] = Reduction in surface activity in SUN N8075 aqueous solution (Test example 7); parameters: key: A: In 20 minutes; B: In 60 minutes; C: 60 minutes to 3 days; D: Comparable to Control
Method: (§1) Into each test compound solution which was prepared in advance to achieve each adding concentration shown in the Table, SUN N8075 was added and dissolved so that the concentration thereof was 5 mg/mL, and the pH value was adjusted to 3 to 4 as appropriate by hydrochloric acid to prepare a sample solution.
(§2) Each 10 mL of sample solution was put into a 10-mL stoppered test tube, and shaken 30 strokes vertically by hand and allowed to stand upright, and under room diffused light, appearance of sample solution after shaking, foaming property (foaming quantity), defoaming time, post standing observation (after standing for 3 days or more) were evaluated.
(§3) As a control, an aqueous solution containing no test substance but containing 5 mg/mL of SUN N8075 was examined in a similar manner.

[2] = Examination of solubilizing agent: solubility of SUN N8075 (Test example 1); details: for solubility at 30 min: phosphate-buffered saline with solubilizing agent, 24 °C, kinetic from dmso stock, read-out: Concentration (solubility of SUN N8075)
Method: 8 mg/mL aqueous solution of SUN N8075 was prepared. On the other hand, for each solubilizing agent, an aqueous solution having approximately 0.4% of solubilizing agent was prepared.
10 mL of SUN N8075 aqueous solution and 10 mL of solution of each solubilizing agent were mixed to give Mixture A, and Mixture A was filtered through a filter of 0.22 μm.
6.24 g of sodium dihydrogen phosphate and 16.4 g of sodium chloride were weighed and water was added to make the volume precisely 1,000 mL. To this solution, 1 mol/L sodium hydroxide test solution was added dropwise and the pH value was adjusted to 7.4, which was named Mixture B.
Mixture of each 2.5 mL of Mixture A and Mixture B was provided as a test solution (in each test solution, the concentration of SUN N8075 corresponds to 2 mg/mL, and the concentration of solubilizing agent corresponds to 0.1%).
As for a solubilizing agent of which degree of improving solubility of SUN N8075 was high, tests with concentrations of the added solubilizing agent varied were additionally executed in accordance with the method as described above.

[3] = Reduction in surface activity in SUN N8075 aqueous solution (Test example 7); parameters: key: A: Much less foaming than Control; B: Clearly less foaming than Control; Slightly less foaming than Control; D: Comparable to Control; E: More foaming than Control
Method: as §1, §2, §3

- Defoaming time ([1]; Chlorobutanol 0.50%): C
- Defoaming time ([1]; Chlorobutanol […]): C
- Defoaming time ([1]; Ethanol 1.00%): C
- Defoaming time ([1]; Glycine 100 mM): C
- Defoaming time ([1]; Meglumine 25 mM): C
- Defoaming time ([1]; Methane sulfonic acid 15 mM): C
- Defoaming time ([1]; Propylene glycol 1.00%): C
- Defoaming time ([1]; Sodium L-glutamate 30 mM): C
- Defoaming time ([1]; Sodium chloride 50 mM): C
- Appearance of solution ([2]; Glycerin 0.1%, pH 6.8): colorless and clear
- Appearance of solution ([2]; HCO-60 0.1%, pH 6.8): colorless and clear
- Appearance of solution ([2]; HCO-60 0.2%, pH 6.9): colorless and clear
- Appearance of solution ([2]; HCO-60 0.5%, pH 6.8): colorless and clear
- Appearance of solution ([2]; Human serum albumin 0.1%, pH 6.8): colorless and clear
- Appearance of solution ([2]; Macrogol 4000 0.1%, pH 6.8): colorless and clear
- Appearance of solution ([2]; Mannitol 0.1%, pH 6.8): colorless and clear
- Appearance of solution ([2]; Nicotinic amide 0.1%, pH 6.8): colorless and clear
- Appearance of solution ([2]; No additive, pH 6.8): colorless and clear
- Appearance of solution ([2]; Propylene glycol 0.1%, pH 6.9): colorless and clear
- Appearance of solution ([2]; Tween80 0.1%, pH 6.8): clouded
- Appearance of solution ([2]; Tween80 0.2%, pH 6.8): clouded
- Appearance of solution ([2]; Tween80 0.5%, pH 6.8): clouded
- Appearance of solution ([2]; Tween80 1.0%, pH 6.8): colorless and clear
- solubility at 30 min ([2]; pH 6.5, aqueous with cosolvent or surfactant or cyclodextrin, β-Cyclodextrin derivative 10%, pH 6.5): 4850 µg/mL
- solubility at 30 min ([2]; pH 6.8, aqueous with cosolvent or surfactant or cyclodextrin, HCO-60 0.5%, pH 6.8): 395 µg/mL
- solubility at 30 min ([2]; pH 6.8, aqueous with cosolvent or surfactant or cyclodextrin, HCO-60 (polyoxyethylene hardened castor oil) 0.1%, pH 6.8): 184 µg/mL
- solubility at 30 min ([2]; pH 6.8, aqueous with cosolvent or surfactant or cyclodextrin, Human serum albumin 0.1%, pH 6.8): 14 µg/mL
- solubility at 30 min ([2]; pH 6.8, aqueous with cosolvent or surfactant or cyclodextrin, Tween80 0.1%, pH 6.8): 745 µg/mL
- solubility at 30 min ([2]; pH 6.8, aqueous with cosolvent or surfactant or cyclodextrin, Tween80 0.2%, pH 6.8): 1830 µg/mL
- solubility at 30 min ([2]; pH 6.8, aqueous with cosolvent or surfactant or cyclodextrin, Tween80 0.5%, pH 6.8): 1790 µg/mL
- solubility at 30 min ([2]; pH 6.8, aqueous with cosolvent or surfactant or cyclodextrin, Tween80 1.0%, pH 6.8): 1820 µg/mL
- solubility at 30 min ([2]; pH 6.8, aqueous with cosolvent or surfactant or cyclodextrin, β-Cyclodextrin derivative 0.5%, pH 6.8): 98 µg/mL
- solubility at 30 min ([2]; pH 6.8, aqueous with cosolvent or surfactant or cyclodextrin, β-Cyclodextrin derivative 1.0%, pH 6.8): 240 µg/mL
- solubility at 30 min ([2]; pH 6.9, aqueous with cosolvent or surfactant or cyclodextrin, HCO-60 0.2%, pH 6.9): 334 µg/mL
- solubility at 30 min ([2]; pH 6.9, aqueous with cosolvent or surfactant or cyclodextrin, β-Cyclodextrin 0.1%, pH 6.9): 26 µg/mL
- solubility at 30 min ([2]; pH 6.9, aqueous with cosolvent or surfactant or cyclodextrin, β-Cyclodextrin derivative 5.0%, pH 6.9): 1420 µg/mL
- Appearance of solution ([2]; β-Cyclodextrin 0.1%, pH 6.9): colorless and clear
- Appearance of solution ([2]; β-Cyclodextrin derivative 0.5%, pH 6.8): colorless and clear
- Appearance of solution ([2]; β-Cyclodextrin derivative 1.0%, pH 6.8): colorless and clear
- Appearance of solution ([2]; β-Cyclodextrin derivative 5.0%, pH 6.9): colorless and clear
- Appearance of solution ([2]; β-Cyclodextrin derivative 10%, pH 6.5): colorless and clear
- Appearance of solution ([2]; β-Cyclodextrin derivative (β-cyclodextrin sulfobutyl ether sodium salt) 0.1%, pH 6.8): colorless and clear
- Defoaming time ([3]; Chlorobutanol 0.10%): D
- Defoaming time ([3]; Sodium chloride 25 mM): D
SMILES: Cc1cc(OC[C@@H](O)CN2CCN(c3ccc(Cc4ccc(F)cc4)cc3)CC2)c(C)c(C)c1N [SUN N8075, (2S)-1-(4-amino-2,3,5-trimethylphenoxy)-3-{4-[4-(4-fluorobenzyl)phenyl]-1-piperazinyl}-2-propanol dimethane sulfonate]
